Molecular target: T1, αβγ hENaC (Homo sapiens, UniProt P37088+P51168+P51170)
T1 construct: GFP; host or cells: HEK293T
T1 sequence (P37088 1-669): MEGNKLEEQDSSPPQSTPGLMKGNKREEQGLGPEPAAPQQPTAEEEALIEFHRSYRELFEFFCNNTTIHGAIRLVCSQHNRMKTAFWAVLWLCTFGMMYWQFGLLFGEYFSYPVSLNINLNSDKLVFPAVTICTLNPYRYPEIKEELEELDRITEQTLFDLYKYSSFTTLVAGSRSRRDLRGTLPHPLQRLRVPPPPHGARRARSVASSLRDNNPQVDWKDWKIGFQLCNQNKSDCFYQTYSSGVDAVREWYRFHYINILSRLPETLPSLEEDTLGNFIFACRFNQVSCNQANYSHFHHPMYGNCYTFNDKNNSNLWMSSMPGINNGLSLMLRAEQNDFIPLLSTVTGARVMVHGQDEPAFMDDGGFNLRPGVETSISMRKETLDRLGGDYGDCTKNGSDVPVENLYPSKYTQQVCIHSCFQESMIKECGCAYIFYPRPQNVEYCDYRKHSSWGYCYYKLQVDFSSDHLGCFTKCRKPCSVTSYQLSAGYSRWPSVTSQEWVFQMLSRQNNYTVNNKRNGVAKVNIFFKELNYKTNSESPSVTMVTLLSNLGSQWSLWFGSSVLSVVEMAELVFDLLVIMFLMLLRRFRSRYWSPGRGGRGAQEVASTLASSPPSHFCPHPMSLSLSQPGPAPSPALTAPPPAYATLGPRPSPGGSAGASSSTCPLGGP
T1 sequence (P51168 1-640): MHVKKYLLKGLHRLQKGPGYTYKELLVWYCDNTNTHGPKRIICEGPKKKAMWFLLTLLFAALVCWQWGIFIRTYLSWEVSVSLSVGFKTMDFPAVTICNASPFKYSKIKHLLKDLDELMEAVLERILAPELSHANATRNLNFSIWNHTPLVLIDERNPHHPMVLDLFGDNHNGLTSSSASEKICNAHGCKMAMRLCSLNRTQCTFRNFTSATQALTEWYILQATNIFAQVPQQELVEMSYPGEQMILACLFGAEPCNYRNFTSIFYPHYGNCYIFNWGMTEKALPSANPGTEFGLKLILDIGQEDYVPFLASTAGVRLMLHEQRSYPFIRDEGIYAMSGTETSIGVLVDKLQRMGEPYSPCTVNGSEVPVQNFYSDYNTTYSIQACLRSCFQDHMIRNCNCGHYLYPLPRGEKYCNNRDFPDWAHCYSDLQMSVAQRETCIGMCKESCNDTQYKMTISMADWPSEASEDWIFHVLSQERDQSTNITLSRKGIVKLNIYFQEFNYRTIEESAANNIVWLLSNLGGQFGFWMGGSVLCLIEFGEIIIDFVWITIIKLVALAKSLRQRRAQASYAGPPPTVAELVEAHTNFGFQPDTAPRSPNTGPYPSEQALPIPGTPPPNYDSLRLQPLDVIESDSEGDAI
T1 sequence (P51170 1-649): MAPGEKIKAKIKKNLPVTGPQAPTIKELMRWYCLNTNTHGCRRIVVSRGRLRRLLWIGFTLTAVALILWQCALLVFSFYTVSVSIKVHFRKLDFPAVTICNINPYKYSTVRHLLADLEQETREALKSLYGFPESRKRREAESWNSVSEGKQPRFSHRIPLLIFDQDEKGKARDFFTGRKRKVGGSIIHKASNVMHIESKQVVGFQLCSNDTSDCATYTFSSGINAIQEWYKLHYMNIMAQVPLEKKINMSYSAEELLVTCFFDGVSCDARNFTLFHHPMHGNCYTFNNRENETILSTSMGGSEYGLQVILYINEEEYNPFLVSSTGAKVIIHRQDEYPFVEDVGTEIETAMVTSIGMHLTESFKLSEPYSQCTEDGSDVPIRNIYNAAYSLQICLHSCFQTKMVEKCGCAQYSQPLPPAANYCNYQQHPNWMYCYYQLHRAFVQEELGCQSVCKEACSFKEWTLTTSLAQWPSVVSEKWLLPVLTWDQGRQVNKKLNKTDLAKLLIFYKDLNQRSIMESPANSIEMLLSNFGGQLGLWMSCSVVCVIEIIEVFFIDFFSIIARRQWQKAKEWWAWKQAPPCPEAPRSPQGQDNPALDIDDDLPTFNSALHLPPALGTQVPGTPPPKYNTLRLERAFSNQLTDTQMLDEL
Test: Membrane potential assay (FMP dye) on αβγ hENaC-expressing cells
Format: cell-based
Conditions: relative to buffer alone, 0.01-10 µM
Method: The α, β, and γ hENaC subunits were cloned from OriGene (Rockville, MD; GenBank accession number […] for SCNN1A, NM_000336 for SCNN1B and NM_001039 for SCNN1G). α, GFP-tagged β, and γ hENaC were cloned into a CMV promoter-based vector and expressed constitutively. The HEK293T cells were seeded onto a 35 mm dish and transfected with α, β, and γ hENaC expression plasmid using Lipofectamine 2000 (Invitrogen). Then, transfected cells were seeded onto 96-well black-wall plate for 18–26 h prior to their use in an experiment.
hENaC-expressing cells were characterized using FLIPER Membrane Potential (FMP) Assay Kit (Molecular Devices Corporation, Sunnyvale, CA, USA). In this assay, changes in the membrane potential were quantified via fluorescence change caused by FMP dye. The hENaC-expressing cells were washed with assay buffer (containing: 130 mM NaCl, 10 mM glucose, 5 mM KCl, 2 mM CaCl2, 1.2 mM MgCl2, and 10 mM HEPES, pH adjusted to 7.4 with NaOH) and subsequently, FMP blue-dye in assay buffer was loaded into the cells at room temperature for 30 min. After dye treatment, S3969 (0.03−10 µM), an ENaC agonist, S3969+Bz (ENaC antagonist, 0.01 µM), or NGCC (0.01−10 µM) was treated to hENaC-expressing cells. The plate was assayed in a FlexStation III plate reader (Molecular devices Corporation) by excitation at 530 nm and measuring the emission at 560 nm.

CC(C)=CCC/C(C)=C/CNC(=O)C1CC1 [NGCC, N-geranylcyclopropylcarboxamide]
change in membrane potential in αβγ hENaC-expressing cells: no significant changes in membrane potential

— paper PMC3930709, “Selective Activation of hTRPV1 by N-Geranyl Cyclopropylcarboxamide, an Amiloride-Insensitive Salt Taste Enhancer” (PLoS ONE, 2014)
